Measurements as given in ChEMBL document CHEMBL1152529, “Synthesis, antifungal, haemolytic and cytotoxic activities of a series of bis(alkylpyridinium)alkanes” (Bioorg Med Chem, 2009).
The source made the active and inactive calls. The calls are words filed in the database; no cut-off is given here.

Experiments:
[1] = Cytotoxicity against human erythrocytes assessed as hemolysis after 1 hr; format: cell-based, Erythrocyte
[2] = test system: A549; experiment: Cytotoxicity against human A549 cells after 3 hrs by MTS assay; format: cell-based; settings: A549, 3 h
[3] = test system: Candida albicans; experiment: Antifungal activity against Candida albicans ATCC 10231 after 48 to 72 hrs by broth microdilution method; format: functional; settings: Candida albicans, ATCC 10231; read-out: MIC
[4] = test system: Cryptococcus neoformans; experiment: Antifungal activity against Cryptococcus neoformans ATCC 90112 after 48 to 72 hrs by broth microdilution method; format: functional; settings: Cryptococcus neoformans, ATCC 90112; read-out: MIC
[5] = test system: MDCK; experiment: Cytotoxicity against MDCK cells after 3 hrs by MTS assay; format: cell-based; settings: Canis lupus familiaris
[6] = Inhibition of phospholipid fatty acyl chain hydrolysis activity of Cryptococcus neoformans var. grubii H99 PLB assessed as formation of radiolabeled free fatty acid at pH 4 by radiometric assay
[7] = target: Phospholipase A2, major isoenzyme (Sus scrofa, UniProt P00592); experiment: Inhibition of porcine pancreatic PLA2 after 1 hr by radiometric method
Sequence of Phospholipase A2, major isoenzyme (P00592 whole entry): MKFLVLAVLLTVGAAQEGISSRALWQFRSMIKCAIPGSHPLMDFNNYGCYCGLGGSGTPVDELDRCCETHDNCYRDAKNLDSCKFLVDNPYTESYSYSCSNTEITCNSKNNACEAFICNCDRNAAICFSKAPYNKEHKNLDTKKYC

[8] = test system: Cryptococcus neoformans var. grubii H99; experiment: Inhibition of lysophospholipase acyltransferase activity of Cryptococcus neoformans var. grubii H99 PLB assessed as formation of radiolabeled dipalmitoyl phosphatidylcholine at 0.25 to 250 uM at pH 4 by radiometric assay
[9] = test system: Cryptococcus neoformans var. grubii H99; experiment: Inhibition of lysophospholipid fatty acyl chain hydrolysis activity of Cryptococcus neoformans var. grubii H99 PLB assessed as formation of radiolabeled free fatty acid at 0.25 to 250 uM at pH 4 by radiometric assay

SMILES | HC50 at 1 h [1] [µM] | IC50 [2] [µM] | MIC [3] [µM] | MIC [4] [µM] | IC50 [5] [µM] | IC50 [6] [µM] | IC50 [7] [µM] | Activity [8] | Activity [9]
CC(C)(C)CCc1cc[n+](CCCCCCCCCCCC[n+]2ccc(CCC(C)(C)C)cc2)cc1 | > 350 | 105 | 5.5 | 2.7 | 135 |  |  |  | 
Cc1cc[n+](CCCCCCCCCCCC[n+]2ccc(C)cc2)cc1 |  | > 350 | 22 | 88 | > 350 | > 250 | > 250 | inactive | inactive
CCCCCc1ccc[n+](CCCCCCCCCCCC[n+]2cccc(CCCCC)c2)c1 | > 350 |  | 5.5 | 11 |  |  |  |  | 
CC(C)(C)c1cc[n+](CCCCCCCCCCCC[n+]2ccc(C(C)(C)C)cc2)cc1 | > 350 | > 350 | 22 | 11 | > 350 | 34 | > 250 | inactive | inactive
c1ccc(CCCc2cc[n+](CCCCCCCCCCCC[n+]3ccc(CCCc4ccccc4)cc3)cc2)cc1 | 67 | 55 | 2.7 | 2.7 | 65 | 5 | 104 | inactive | inactive
CCCCCCCCc1cc[n+](CCCCCCCCCCCC[n+]2ccc(CCCCCCCC)cc2)cc1 | 98 |  | 2.7 | 2.7 |  |  |  |  | 
CCc1ccc[n+](CCCCCCCCCCCC[n+]2cccc(CC)c2)c1 |  |  | 44 | 88 |  |  |  |  | 
CCCCCc1cc[n+](CCCCCCCCCCCC[n+]2ccc(CCCCC)c(C)c2)cc1C | > 350 | 122 | 2.7 | 1.4 | 145 | 8 | 134 | inactive | inactive
CCc1cc[n+](CCCCCCCCCCCC[n+]2ccc(CC)cc2)cc1 |  | > 350 | 11 | 44 | > 350 | 138 | > 250 | inactive | inactive
CCCc1cc[n+](CCCCCCCCCCCC[n+]2ccc(CCC)cc2)cc1 |  |  | 11 | 44 |  |  |  |  | 
CCCCc1cc[n+](CCCCCCCCCCCC[n+]2ccc(CCCC)cc2)cc1 | > 350 | 215 | 5.5 | 11 | 150 |  |  |  | 
CCCCC(CCCC)c1cc[n+](CCCCCCCCCCCC[n+]2ccc(C(CCCC)CCCC)c(C)c2)cc1C | 31 | 10 | 2.7 | 2.7 | 10 |  |  |  | 
CCCCCc1cccc[n+]1CCCCCCCCCCCC[n+]1ccccc1CCCCC | > 350 | > 350 | 2.7 | 2.7 | 315 |  |  |  | 
CC(C)c1cc[n+](CCCCCCCCCCCC[n+]2ccc(C(C)C)cc2)cc1 |  | > 350 | 22 | 44 | > 350 |  |  |  | 
c1cc[n+](CCCCCCCCCCCC[n+]2ccccc2)cc1 | > 350 |  | 44 | 88 |  | > 250 | > 250 | inactive | inactive
CCCCCc1cc[n+](CCCCCCCCCCCC[n+]2ccc(CCCCC)cc2)cc1 [listing 1 of 2 here] |  |  |  |  |  |  |  | inactive | inactive
OCc1cc[n+](CCCCCCCCCCCC[n+]2ccc(CO)cc2)cc1 |  |  | 88 | 88 |  |  |  |  | 
c1ccc(Cc2cc[n+](CCCCCCCCCCCC[n+]3ccc(Cc4ccccc4)cc3)cc2)cc1 |  |  | 11 | 22 |  |  |  |  | 
CCCCCc1cc[n+](CCCCCCCCCCCC[n+]2ccc(CCCCC)cc2)cc1 [listing 2 of 2 here] |  |  | 2.7 | 1.4 |  |  |  |  | 
